Where a name gives a salt, the structure may show the parent alone. Read-outs that look alike come from different tables or passages of the source.
What was measured:
human 5-HT2C receptor = target: T1, human 5-HT2C receptor (Homo sapiens, UniProt P28335); test: 5-HT2C receptor-stimulated calcium mobilization (FLIPR) in CHO cells; assay type: cell-based; settings: for Emax: CHO, read-out: 5-HT2C Function Emax (%)
T1 sequence (P28335 33-458): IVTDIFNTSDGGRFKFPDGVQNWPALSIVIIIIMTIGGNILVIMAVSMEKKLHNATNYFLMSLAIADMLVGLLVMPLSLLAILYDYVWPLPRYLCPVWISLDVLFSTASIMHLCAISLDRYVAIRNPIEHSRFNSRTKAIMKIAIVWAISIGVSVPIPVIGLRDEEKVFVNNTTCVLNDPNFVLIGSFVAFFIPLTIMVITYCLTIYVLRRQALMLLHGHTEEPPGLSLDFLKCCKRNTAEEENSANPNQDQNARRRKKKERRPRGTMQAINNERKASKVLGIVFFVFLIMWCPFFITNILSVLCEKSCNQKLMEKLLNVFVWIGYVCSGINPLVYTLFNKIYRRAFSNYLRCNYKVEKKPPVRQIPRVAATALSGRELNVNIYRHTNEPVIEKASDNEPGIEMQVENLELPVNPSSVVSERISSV

[1] = target: T2, human 5-hydroxytryptamine-2C (h-5-HT2C) receptor (Homo sapiens, UniProt P28335); test: [125I]DOI binding to membranes of CHO cells expressing the h-5-HT2C receptor; settings: 5-HT2c Affinity KI (nM), displacement of [125I]DOI, CHO cell membranes
T2 sequence (P28335 33-458): T1 sequence (P28335 33-458)

[2] = calcium mobilization, CHO cells stably expressing human 5-HT2C, read-out: 5-HT2C Function EC50

Structure (SMILES)	melting point [°C]	other results
c1cc2c3c(c1)c1c(n3CCNCC2)CCC1 (as salt: fumarate) [Example 2, 2,3,4,5,10,11-Hexahydro-1H,9H-cyclopenta[b][1,4]diazocino[7,8,1-hi]indole]	180 to 183	
CN1CCc2cccc3c2N(CC1)C1CCCC31 (centres unmarked) (as salt: fumarate) [Example 3, 3-Methyl-2,3,4,5,9,10,11,11a-octahydro-1H,8bH-cyclopenta[b][1,4]diazocino[7,8,1-hi]indole]	159 to 161	
c1cc2c3c(c1)c1c(n3CCNCC2)CCCC1 (as salt: fumarate) [Example 6, 2,3,4,5,9,10,11,12-Octahydro-1H-[1,4]diazocino[7,8,1-jk]carbazole]	174 to 176	
CN1CCc2cccc3c2N(CC1)C1CCCCC31 (centres unmarked) (as salt: fumarate) [Example 7, 3-Methyl-2,3,4,5,8b,9,10,11,12,12a-decahydro-1H-[1,4]diazocino[7,8,1-jk]carbazole]	150 to 153	
c1cc2c3c(c1)C1CCCCC1N3CCNCC2 (centres unmarked) (as salt: fumarate) [Example 8, 2,3,4,5,8b,9,10,11,12,12a-Decahydro-1H-[1,4]diazocino[7,8,1-jk]carbazole]	169 to 171	
CN1CCc2cccc3c4c(n(c23)CC1)CCCCC4 (as salt: fumarate) [Example 9, 3-Methyl-2,3,4,5,10,11,12,13-octahydro-1H,9H-cyclohepta[b][1,4]diazocino[7,8,1-hi]indole]	190 to 192	
c1cc2c3c(c1)c1c(n3CCNCC2)CCCCC1 (as salt: fumarate) [Example 10, 2,3,4,5,10,11,12,13-Octahydro-1H,9H-cyclohepta[b]1,4]diazocino[7,8,1-hi]indole]	216 to 218	
CN1CCc2c(Cl)ccc3c2N(CC1)C1CCCC31 (centres unmarked) (as salt: fumarate) [Example 15, 6-Chloro-3-Methyl-2,3,4,5,9,10,11,11a-octahydro-1H,8bH-cyclopenta[b][1,4]diazocino[7,8,1-hi]indole]	196 to 199	
CN1CCc2c(Cl)ccc3c2N(CC1)C1CCCCCC31 (centres unmarked) (as salt: fumarate) [Example 16, 6-Chloro-3-methyl-2,3,4,5,9,10,11,12,13,13a-decahydro-1H,8bH-cyclohepta[b][1,4]diazocino[7,8,1-hi]indole]	190 to 193	
Clc1ccc2c3c(n4c2c1CCNCC4)CCC3 (as salt: fumarate) [Example 17, 6-Chloro-2,3,4,5,10,11-hexahydro-1H,9H-cyclopenta[b][1,4]diazocino[7,8,1-hi]indole]	188 to 190	
Clc1ccc2c3c(n4c2c1CCNCC4)CCCC3 (as salt: fumarate) [Example 18, 6-Chloro-2,3,4,5,9,10,11,12-octahydro-1H-[1,4]diazocino[7,8,1-jk]carbazole]	208 to 210	
Clc1ccc2c3c(n4c2c1CCNCC4)CCCCC3 (as salt: fumarate) [Example 19, 6-Chloro-2,3,4,5,10,11,12,13-octahydro-1H,9H-cyclohepta[b][1,4]diazocino[7,8,1-hi]indole]	208 to 210	
Clc1ccc2c3c1CCNCCN3C1CCCC21 (centres unmarked) (as salt: fumarate) [Example 20, 6-Chloro-2,3,4,5,9,10,11,11a-octahydro-1H,8bH-cyclopenta[b][1,4]diazocino[7,8,1-hi]indole]	188 to 189	
CCN1CCc2c(Cl)ccc3c2N(CC1)C1CCCC31 (centres unmarked) (as salt: fumarate) [Example 21, 6-Chloro-3-ethyl-2,3,4,5,9,10,11,11a-octahydro-1H,8bH-cyclopenta[b][1,4]diazocino[7,8,1-hi]indole]	199 to 201	
Clc1ccc2c3c1CCNCCN3C1CCCCCC21 (centres unmarked) (as salt: fumarate) [Example 22, 6-Chloro-2,3,4,5,9,10,11,12,13,13a-decahydro-1H,8bH-cyclohepta[b][1,4]diazocino[7,8,1-hi]indole]	168 to 170	
CCN1CCc2c(Cl)ccc3c2N(CC1)C1CCCCC31 (centres unmarked) (as salt: fumarate) [Example 23, 6-Chloro-3-ethyl-2,3,4,5,8b,9,10,11,12,12a-decahydro-1H-[1,4]diazocino[7,8,1-jk]carbazole]	184 to 187	
CN1CCc2ccc(F)c3c4c(n(c23)CC1)CCC4 (as salt: fumarate) [Example 24, 8-Fluoro-3-methyl-2,3,4,5,10,11-hexahydro-1H,9H-cyclopenta[b][1,4]diazocino[7,8,1-hi]indole]	168 to 170	

Structure (SMILES)	melting point [°C]	other results
CN1CCc2ccc(F)c3c4c(n(c23)CC1)CCCC4 (as salt: fumarate) [Example 25, 8-Fluoro-3-methyl-2,3,4,5,9,10,11,12-octahydro-1H-[1,4]diazocino[7,8,1-jk]carbazole]	206 to 208	
CN1CCc2ccc(F)c3c2N(CC1)C1CCCC31 (centres unmarked) (as salt: fumarate) [Example 26, 8-Fluoro-3-methyl-2,3,4,5,9,10,11,11a-octahydro-1H,8bH-cyclopenta[b][1,4]diazocino[7,8,1-hi]indole]	180 to 182	
CN1CCc2ccc(F)c3c2N(CC1)C1CCCCC31 (centres unmarked) (as salt: fumarate) [Example 27, 8-Fluoro-3-methyl-2,3,4,5,8b,9,10,11,12,12a-decahydro-1H-[1,4]diazocino[7,8,1-jk]carbazole]	168 to 170	
Fc1ccc2c3c1c1c(n3CCNCC2)CCC1 (as salt: fumarate) [Example 28, 8-Fluoro-2,3,4,5,10,11-hexahydro-1H,9H-cyclopenta[b][1,4]diazocino[7,8,1-hi]indole]	199 to 200	
Fc1ccc2c3c1c1c(n3CCNCC2)CCCC1 (as salt: fumarate) [Example 29, 8-Fluoro-2,3,4,5,9,10,11,12-octahydro-1H-[1,4]diazocino[7,8,1-jk]carbazole]	177 to 179	
Fc1ccc2c3c1C1CCCC1N3CCNCC2 (centres unmarked) (as salt: fumarate) [Example 30, 8-Fluoro-2,3,4,5,9,10,11,11a-octahydro-1H,8bH-cyclopenta[b][1,4]diazocino[7,8,1-hi]indole]	169 to 170	
Fc1ccc2c3c1C1CCCCC1N3CCNCC2 (centres unmarked) (as salt: fumarate) [Example 31, 8-Fluoro-2,3,4,5,8b,9,10,11,12,12a-decahydro-1H[1,4]diazocino[7,8,1-jk]carbazole]	189 to 190	
CN1CCc2ccc(Cl)c3c4c(n(c23)CC1)CCC4 (as salt: fumarate) [Example 34, 8-Chloro-3-methyl-2,3,4,5,10,11-hexahydro-1H,9H-cyclopenta[b][1,4]diazocino[7,8,1-hi]indole]	209 to 211	
CN1CCc2ccc(Cl)c3c4c(n(c23)CC1)CCCC4 (as salt: fumarate) [Example 35, 8-Chloro-3-methyl-2,3,4,5,9,10,11,12-octahydro-1H-[1,4]diazocino[7,8,1-jk]carbazole]	212 to 214	
CN1CCc2ccc(Cl)c3c4c(n(c23)CC1)CCC4 [Example 34, 8-Chloro-3-methyl-2,3,4,5,10,11-hexahydro-1H,9H-cyclopenta[b][1,4]diazocino[7,8,1-hi]indole]		EC50 (human 5-HT2C receptor): 81 nM; Emax (human 5-HT2C receptor): 40%; Ki [1]: 15 nM
CN1CCc2ccc(Cl)c3c4c(n(c23)CC1)CCCC4 [Example 35, 8-Chloro-3-methyl-2,3,4,5,9,10,11,12-octahydro-1H-[1,4]diazocino[7,8,1-jk]carbazole]		Emax (human 5-HT2C receptor): 50%; EC50 (human 5-HT2C receptor; [2]): 287 nM; Ki [1]: 11 nM
CN1CCc2ccc(Cl)c3c2N(CC1)C1CCCC31 (centres unmarked) [Example 36, 8-Chloro-3-methyl-2,3,4,5,9,10,11,11a-octahydro-1H,8bH-cyclopenta[b][1,4]diazocino[7,8,1-hi]indole]		Emax (human 5-HT2C receptor): 40%; EC50 (human 5-HT2C receptor; [2]): 467 nM; Ki [1]: 12 nM
CN1CCc2ccc(Cl)c3c2N(CC1)C1CCCCC31 (centres unmarked) [Example 37, 8-Chloro-3-methyl-2,3,4,5,8b,9,10,11,12,12a-decahydro-1H-[1,4]diazocino[7,8,1-jk]carbazole]		Emax (human 5-HT2C receptor): 70%; EC50 (human 5-HT2C receptor; [2]): 655 nM; Ki [1]: 11.6 nM
Clc1ccc2c3c1c1c(n3CCNCC2)CCC1 [Example 38, 8-Chloro-2,3,4,5,10,11-hexahydro-1H,9H-cyclopenta[b][1,4]diazocino[7,8,1-hi]indole]		EC50 (human 5-HT2C receptor): 87 nM; Emax (human 5-HT2C receptor): 90%; Ki [1]: 9.3 nM
Clc1ccc2c3c1c1c(n3CCNCC2)CCCC1 [Example 39, 8-Chloro-2,3,4,5,9,10,11,12-octahydro-1H-[1,4]diazocino[7,8,1-jk]carbazole]		EC50 (human 5-HT2C receptor): 48 nM; Emax (human 5-HT2C receptor): 80%; Ki [1]: 2 nM
Clc1ccc2c3c1C1CCCC1N3CCNCC2 (centres unmarked) [Example 40, 8-Chloro-2,3,4,5,9,10,11,11a-octahydro-1H,8bH-cyclopenta[b][1,4]diazocino[7,8,1-hi]indole]		EC50 (human 5-HT2C receptor): 81 nM; Emax (human 5-HT2C receptor): 80%; Ki [1]: 20 nM
Clc1ccc2c3c1C1CCCCC1N3CCNCC2 (centres unmarked) [Example 41, 8-Chloro-2,3,4,5,8b,9,10,11,12,12a-decahydro-1H-[1,4]diazocino[7,8,1-jk]carbazole]		EC50 (human 5-HT2C receptor): 91 nM; Emax (human 5-HT2C receptor): 90%; Ki [1]: 7.5 nM

Source: US7012089B2, “[1,4]Diazocino[7,8,1-hi]indole derivatives as antipsychotic and antiobesity agents” (Wyeth, priority 2002, dated 2006)
